Strand notation (5' to 3'): a small letter for the sugar, then the base; units joined by * are phosphorothioate-linked, units joined directly phosphodiester-linked; [ ] holds rarer units or linkages, { } end groups; capitals alone tell only the bases. e = 2'-O-(2-methoxyethyl) (MOE); [5mC] = 5-methylcytosine; d = 2'-deoxy (DNA)
Assays:
[1] = test system: DGAT2 mRNA; assay: Antisense inhibition of DGAT2 in A10 cells at 75 nM (Example 22, Table 81); assay type: cell-based, rat; conditions: approximately 24 hours
Method: Short antisense compounds targeted to a DGAT2 nucleic acid were tested for their effects on DGAT2 mRNA in vitro. Cultured A10 cells in a 96-well plate were treated with 75 nM of short antisense compound. After a treatment period of approximately 24 hours, RNA was isolated from the cells and DGAT2 mRNA levels were measured by quantitative real-time PCR, as described herein. DGAT2 mRNA levels were adjusted according to total RNA content as measured by RIBOGREEN®. […]

[2] = test system: rat DGAT2 mRNA; assay: Dose-dependent inhibition of DGAT2 in A10 cells, 0.62-150 nM (Example 22, Table 83); assay type: cell-based
Method: Additional short antisense compounds targeted to DGAT2 mRNA were tested in vitro. A10 cells were prepared as described above and treated with 0.62, 1.85, 5.56, 16.67, 50.0, and 150.0 nM short antisense compounds to determine if DGAT2 inhibition occurs in a dose-dependent manner. DGAT2 mRNA was measured using quantitative real-time PCR, as described herein. […] Results are presented as percent inhibition of rat DGAT2, relative to untreated control cells.

[3] = test system: rat DGAT2 mRNA; assay: Dose-dependent inhibition of DGAT2 in A10 cells, 6.25-200 nM (Example 22, Table 82); assay type: cell-based
Method: Additional short antisense compounds targeted to DGAT2 mRNA were tested in vitro in a dose-response experiment. A10 cells were prepared as described above and treated with 6.25, 12.5, 25.0, 50.0, 100.0, and 200.0 nM short antisense compounds to determine if DGAT2 inhibition occurs in a dose-dependent manner. […] Results are presented as percent inhibition, relative to untreated control cells.

[4] = test system: SGLT2 mRNA; assay: SGLT2 mRNA levels in kidney of Balb/c mice, twenty 1-10-1 MOE gapmers at 350 nmol/kg, PPS 534 and PPS 553 (Example 18, Table 74); assay type: in vivo, mouse; conditions: 350 nmol/kg i.p. twice per week for two weeks
Method: Twenty 1-10-1 MOE gapmers that are complementary to human/monkey/mouse/rat SGLT2 were designed, synthesized and tested in vivo for suppression of SGLT2 mRNA levels in kidney. Data are averages from two experiments in which male 6-week old Balb/c mice were administered intraperitoneal injections of 350 nmol/kg of oligonucleotide, twice per week, over a period of two weeks (a total of four injections). Mice were sacrificed 48 hours following the last administration and evaluated for SGLT2 mRNA levels in kidney. SGLT2 mRNA levels were determined by quantitative real-time PCR analysis according to standard procedures, using two different PCR primer probe sets, primer probe set (PPS) 534 and PPS 553. SGLT2 mRNA levels were normalized to cyclophilin mRNA levels, which were also measured by quantitative real-time PCR.

| Substance | DGAT2 mRNA, % Control [1] [%] | percent inhibition of rat DGAT2 ([2]; 0.62 nM) | percent inhibition of rat DGAT2 ([2]; 1.85 nM) | percent inhibition of rat DGAT2 ([2]; 5.56 nM) | percent inhibition of rat DGAT2 ([2]; 16.67 nM) | percent inhibition of rat DGAT2 ([2]; 50 nM) | percent inhibition of rat DGAT2 ([2]; 150 nM) | further results |
| --- | --- | --- | --- | --- | --- | --- | --- | --- |
| 372491 (antisense eA*e[5mC]*eA*dT*dG*dA*dG*dG*dA*dT*dG*dA*d[5mC]*eA*e[5mC]*eT) [compound 372491] | 80 |  |  |  |  |  |  |  |
| 372500 (antisense eG*eT*eG*dT*dG*dT*d[5mC]*dT*dT*d[5mC]*dA*d[5mC]*d[5mC]*eA*eG*e[5mC]) [compound 372500] | 16 | 0 | 0 | 0 | 18 | 64 | 88 |  |
| 372501 (antisense eT*eT*eG*dT*dG*dT*dG*dT*d[5mC]*dT*dT*d[5mC]*dA*e[5mC]*e[5mC]*eA) [compound 372501] | 28 | 1 | 5 | 10 | 11 | 25 | 68 |  |
| 372503 (antisense eG*e[5mC]*eA*dG*dG*dT*dT*dG*dT*dG*dT*dG*dT*e[5mC]*eT*eT) [compound 372503] | 35 | 7 | 10 | 4 | 25 | 54 | 80 |  |
| 372508 (antisense eA*eG*eT*dT*d[5mC]*d[5mC]*dT*dG*dG*dT*dG*dG*dT*e[5mC]*eA*eG) [compound 372508] | 35 | 0 | 0 | 6 | 14 | 39 | 71 |  |
| 372516 (antisense eT*eA*e[5mC]*dA*dG*dA*dA*dG*dG*d[5mC]*dA*d[5mC]*d[5mC]*e[5mC]*eA*eG) [compound 372516] | 27 | 1 | 10 | 0 | 4 | 35 | 81 |  |
| 372562 (antisense eG*eT*d[5mC]*dT*dT*dG*dG*dA*dG*dG*dG*d[5mC]*e[5mC]*eG) [compound 372562] |  |  |  |  |  |  |  | percent inhibition of DGAT2 ([3]; 6.25 nM): 0; percent inhibition of DGAT2 ([3]; 12.5 nM): 0; percent inhibition of DGAT2 ([3]; 50.0 nM): 36; percent inhibition of DGAT2 ([3]; 100.0 nM): 48; percent inhibition of DGAT2 ([3]; 200.0 nM): 75; percent inhibition of DGAT2 ([3]; […]): 0 |
| 372568 (antisense eG*eA*d[5mC]*dA*d[5mC]*dT*dG*d[5mC]*dA*dG*dG*d[5mC]*e[5mC]*eA) [compound 372568] |  |  |  |  |  |  |  | percent inhibition of DGAT2 ([3]; 6.25 nM): 0; percent inhibition of DGAT2 ([3]; 12.5 nM): 0; percent inhibition of DGAT2 ([3]; 50.0 nM): 26; percent inhibition of DGAT2 ([3]; 100.0 nM): 72; percent inhibition of DGAT2 ([3]; 200.0 nM): 69; percent inhibition of DGAT2 ([3]; […]): 15 |
| 372569 (antisense e[5mC]*eA*dT*dG*dA*dG*dG*dA*dT*dG*dA*d[5mC]*eA*e[5mC]) [compound 372569] | 104 |  |  |  |  |  |  |  |
| 379694 (antisense eG*dA*d[5mC]*dG*dA*dA*dG*dG*dT*d[5mC]*dT*eG) [compound 379694] |  |  |  |  |  |  |  | SGLT2 mRNA in kidney, % change relative to saline ([4]; primer probe set 534): −42.1%; SGLT2 mRNA in kidney, % change relative to saline ([4]; primer probe set 553): −54.4% |

Source: patent US8188059B2, “Compounds and methods for modulating expression of GCGR” (Isis Pharmaceuticals, Inc., priority 2006, dated 2012)
